Earlier results in article PMC6974622, “DeepMalaria: Artificial Intelligence Driven Discovery of Potent Antiplasmodials” (Frontiers in Pharmacology, 2020).
Values joined by “and” are separate entries in the source; they are usually repeats but may differ in a detail not shown here. Equal entries are not always repeated. Structures can show the parent of a compound that is named as a salt. *1 amine or outer side, *2 acyl side, *3 side chain or, on linkers, in order; H or OH if unused. Where a SMILES comes first, the peptide text is derived from it. Bridges are numbered along the chain shown (N, C = ends). Roman numbers before positions name the chains, in order. [ ]: non-standard residue; d: D form. Actinocin(1to9) = Cc1c2oc3c(C)ccc(C(=O)[*:2])c3nc-2c(C(=O)[*:1])c(N)c1=O; Actinocin(9to1) = Cc1c2oc3c(C)ccc(C(=O)[*:1])c3nc-2c(C(=O)[*:2])c(N)c1=O; NMeV = CN[C@H](C(=O)O)C(C)C; Sar = CNCC(=O)O

Test system: 3D7
Parameters: unit not given here
Conditions: cited from earlier work

Point of comparison: `O=P1(N(CCCl)CCCl)NCCCO1` (centres unmarked) [Cyclophosphamide], 3D7 56.2. Against it:
- CC1=CC(=C(c2ccc(N)cc2)c2ccc(N)cc2)C=CC1=N.Cl [Basic fuchsin] — higher, 96.3
- CC[C@H](C)[C@@H]1NC(=O)[C@@H](NC(=O)c2c3nc4c(C(=O)N[C@@H]5C(=O)N[C@@H](C(C)C)C(=O)N6CCC[C@H]6C(=O)N(C)CC(=O)N(C)[C@@H](C(C)C)C(=O)O[C@@H]5C)ccc(C)c4oc-3c(C)c(=O)c2N)[C@@H](C)OC(=O)[C@H](C(C)C)N(C)C(=O)CN(C)C(=O)[C@@H]2CCCN2C1=O [Cactinomycin] (I: TIP[Sar][NMeV] / II: TVP[Sar][NMeV]; ester I:1-I:C, II:1-II:C; linker I:N-II:N via Actinocin(1to9)) — higher, 99

Same assay, conditions: repurposing dataset, 179 approved drugs; ref https://www.nature.com/articles/nchembio806; cited from earlier work

Point of comparison: `Cc1c2oc3c(C)ccc(C(=O)N[C@@H]4C(=O)N[C@H](C(C)C)C(=O)N5CCC[C@H]5C(=O)N(C)CC(=O)N(C)[C@@H](C(C)C)C(=O)O[C@@H]4C)c3nc-2c(C(=O)N[C@@H]2C(=O)N[C@H](C(C)C)C(=O)N3CCC[C@H]3C(=O)N(C)CC(=O)N(C)[C@@H](C(C)C)C(=O)O[C@@H]2C)c(N)c1=O` [Dactinomycin] (I: T[dV]P[Sar][NMeV] / II: T[dV]P[Sar][NMeV]; ester I:1-I:C, II:1-II:C; linker I:N-II:N via Actinocin(9to1)), 3D7 99.2. Against it:
- CO[C@H]1/C=C\O[C@@]2(C)Oc3c(C)c(O)c4c(O)c(c(C=O)c(O)c4c3C2=O)NC(=O)/C(C)=C\C=C/[C@H](C)[C@H](O)[C@@H](C)[C@@H](O)[C@@H](C)[C@H](OC(C)=O)[C@@H]1C [3-formyl rifamycin] — lower, 99
- N[C@H](C(=O)O)[C@@H]1CC(Cl)=NO1 [Acivicin] — lower, 98.6
- CC[C@@]1(O)C[C@H](O[C@H]2C[C@H](N(C)C)[C@H](O[C@H]3C[C@H](O)[C@H](O[C@H]4CCC(=O)[C@H](C)O4)[C@H](C)O3)[C@H](C)O2)c2c(cc3c(c2O)C(=O)c2c(O)cccc2C3=O)[C@H]1C(=O)OC [Aclarubicin] — higher, 99.6
- CCCCCCc1ccc(O)cc1O.Nc1c2ccccc2nc2ccccc12 [Acrisorcin] — lower, 98.4
- C=CC(=O)O [Acrylic acid] — lower, 68.8
- CCCCC(CC)CNC(=N)NC(=N)NCCCCCCNC(=N)NC(=N)NCC(CC)CCCC (centres unmarked) [Alexidine] — higher, 99.5
- N=C(N)NC(=O)c1nc(Cl)c(N)nc1N [Amiloride] — lower, 73.2
- Nc1c2ccccc2nc2ccccc12 [Aminacrine] — lower, 97.6
- Nc1nc(N)c2nc(CNc3ccc(C(=O)N[C@@H](CCC(=O)O)C(=O)O)cc3)cnc2n1 [Aminopterin] — lower, 95.7
- CCOC(=O)C1=C(COCCN)NC(C)=C(C(=O)OC)C1c1ccccc1Cl (centres unmarked) [Amlodipine besylate] — lower, 68.2
- C[C@@H]1[C@H](O)[C@@H](C)/C=C/C=C/C=C/C=C/C=C/C=C/C=C/[C@H](O[C@@H]2O[C@H](C)[C@@H](O)[C@H](N)[C@@H]2O)C[C@@H]2O[C@](O)(C[C@@H](O)C[C@@H](O)[C@H](O)CC[C@@H](O)C[C@@H](O)CC(=O)O[C@H]1C)C[C@H](O)[C@H]2C(=O)O [Amphotericin B] — lower, 59.2
- COc1ccc(C[C@H]2NC[C@H](O)[C@H]2OC(C)=O)cc1 [Anisomycin] — lower, 97
- C[C@@H]1CC[C@H]2[C@@H](C)C(=O)O[C@@H]3O[C@@]4(C)CC[C@@H]1[C@]32OO4 [Artemisinin] — lower, 99.1
- C[C@H]1[C@H](OC(=O)CCC(=O)O)O[C@@H]2O[C@@]3(C)CC[C@H]4[C@H](C)CC[C@@H]1[C@@]24OO3 [Artesunate] — lower, 98.7
- COc1ccc(CCN2CCC(Nc3nc4ccccc4n3Cc3ccc(F)cc3)CC2)cc1 [Astemizole] — lower, 97.6
- CC(=O)OC[C@H]1O[C@@H]([S-])[C@H](OC(C)=O)[C@@H](OC(C)=O)[C@@H]1OC(C)=O.CCP(CC)CC.[Au+] [Auranofin] — higher, 99.4
- CC[C@H]1OC(=O)[C@H](C)[C@@H](O[C@H]2C[C@@](C)(OC)[C@@H](O)[C@H](C)O2)[C@H](C)[C@@H](O[C@@H]2O[C@H](C)C[C@H](N(C)C)[C@H]2O)[C@](C)(O)C[C@@H](C)CN(C)[C@H](C)[C@@H](O)[C@]1(C)O [Azithromycin] — lower, 80.2
- CC(C)(C)CC(C)(C)c1ccc(OCCOCC[N+](C)(C)Cc2ccccc2)cc1 [Benzethonium chloride] — lower, 98.6
- CCCCCCCCCCCC[N+](C)(C)Cc1ccccc1 [Benzododecinium chloride] — higher, 99.9
- CN1[C@@H]2CC[C@H]1C[C@@H](OC(c1ccccc1)c1ccccc1)C2 [Benztropine mesylate] — lower, 70.6
- C[N+](C)(CCOc1ccccc1)Cc1ccccc1.O=C(O)c1cc2ccccc2cc1[O-] [Bephenium hydroxynaphthoate] — lower, 70.2
- COc1ccc2cc3[n+](cc2c1OC)CCc1cc2c(cc1-3)OCO2 [Berberine] — lower, 98.2
- O.O=C(O)c1cc(O)c2c(c1)[O][Bi][O]2 [Bismuth gallate] — lower, 56.5
- CN(C)CCOC(c1ccccc1)c1ccc(Br)cc1 (centres unmarked) [Bromodiphenhydramine] — lower, 64.2
- Oc1c(Br)cc(Br)c2cccnc12 [Broxyquinoline] — lower, 90.8
- CCCCOc1ccc(CC(=O)NO)cc1 [Bufexamac] — lower, 93.2
- CCCCCCCCCCCCCCCC[N+](C)(C)Cc1ccccc1 [Cetalkonium chloride] — lower, 74.2
- CCCCCCCCCCCCCCCC[n+]1ccccc1 [Cetylpyridinium chloride] — lower, 98.6
- [H]/N=C(\N/C(=N/[H])NCCCCCCNC(=N)NC(=N)Nc1ccc(Cl)cc1)Nc1ccc(Cl)cc1 [Chlorhexidine] — lower, 95.4
- CCN(CC)CCCC(C)Nc1ccnc2cc(Cl)ccc12 (centres unmarked) [Chloroquine diphosphate] — lower, 97.3
- CN(C)CCOC(C)(c1ccccc1)c1ccc(Cl)cc1 (centres unmarked) [Chlorphenoxamine] — lower, 90.8
- CO[C@@H]1[C@H](O)C[C@@H](O[C@@H]2C[C@H](Oc3cc4cc5c(c(O)c4c(O)c3C)C(=O)[C@@H](O[C@H]3C[C@@H](O[C@H]4C[C@@H](O[C@H]6C[C@](C)(O)[C@@H](OC(C)=O)[C@H](C)O6)[C@H](O)[C@@H](C)O4)[C@H](O)[C@@H](C)O3)[C@H]([C@H](OC)C(=O)[C@@H](O)[C@@H](C)O)C5)O[C@H](C)[C@@H]2OC(C)=O)O[C@@H]1C [Chromomycin A3] — lower, 98.4
- Cc1cc(C2CCCCC2)n(O)c(=O)c1 [Ciclopirox olamine] — lower, 96.9
- C=C[C@H]1CN2CC[C@H]1C[C@H]2[C@H](O)c1ccnc2ccccc12 [Cinchonidine] — lower, 97
- C=C[C@H]1CN2CC[C@H]1C[C@@H]2[C@@H](O)c1ccnc2ccccc12.C=C[C@H]1CN2CC[C@H]1C[C@@H]2[C@@H](O)c1ccnc2ccccc12.O=S(=O)(O)O [Cinchonine sulfate] — lower, 88.6
- CN1CCC[C@@H]1CCO[C@](C)(c1ccccc1)c1ccc(Cl)cc1 [Clemastine] — lower, 96.5
- NC1CCN(c2c(F)cc3c(=O)c(C(=O)O)cn(C4CC4)c3c2Cl)C1 (centres unmarked) [Clinafloxacin] — lower, 79.3
- CCC(=O)O[C@]1(C(=O)CCl)[C@@H](C)C[C@H]2[C@@H]3CCC4=CC(=O)C=C[C@]4(C)[C@@]3(F)[C@@H](O)C[C@@]21C [Clobetasol propionate] — lower, 86
- Oc1ccc(Cl)c2cccnc12 [Cloxyquin] — lower, 83.6
- O=S(=O)([O-])[O-].[Cu+2] [Copper sulfate] — lower, 80.4
- C[C@@H]1C[C@@H]([C@H](O)CC2CC(=O)NC(=O)C2)C(=O)[C@@H](C)C1 [Cycloheximide] — lower, 97.7
- COc1cccc2c1C(=O)c1c(O)c3c(c(O)c1C2=O)C[C@@](O)(C(C)=O)C[C@@H]3O[C@H]1C[C@H](N)[C@H](O)[C@H](C)O1 [Daunorubicin] — higher, 99.6
- C[N+](C)(C)CCCCCCCCCC[N+](C)(C)C [Decamethonium bromide] — lower, 54.8
- CN(CCCCCCCCCCN(C)C(=O)Oc1cccc([N+](C)(C)C)c1)C(=O)Oc1cccc([N+](C)(C)C)c1 [Demecarium bromide] — lower, 95.9
- Cc1cc(N)c2ccccc2[n+]1CCCCCCCCCC[n+]1c(C)cc(N)c2ccccc21 [Dequalinium chloride] — lower, 97.6
- Clc1ccc2c(c1)CCc1cccnc1C2=C1CCNCC1 [Desloratadine] — lower, 81.1
- Oc1ccc(CCN2CCC(Nc3nc4ccccc4n3Cc3ccc(F)cc3)CC2)cc1 [Desmethylastemizole] — lower, 96.7
- CCOC(=O)NC1=C(N2CC2)C(=O)C(NC(=O)OCC)=C(N2CC2)C1=O [Diaziquone] — lower, 97.3
- CC/C(=C(/CC)c1ccc(O)cc1)c1ccc(O)cc1 [Diethylstilbestrol] — lower, 57.3
- CN1C[C@H](C(=O)N[C@]2(C)O[C@@]3(O)[C@@H]4CCCN4C(=O)[C@H](Cc4ccccc4)N3C2=O)C[C@@H]2c3cccc4[nH]cc(c34)C[C@H]21 [Dihydroergotamine mesylate] — lower, 88.1
- C[N+]1(C)CCC(=C(c2ccccc2)c2ccccc2)CC1 [Diphemanil] — lower, 90
- CCN1/C(=C/C=C/C=C/c2sc3ccccc3[n+]2CC)Sc2ccccc21 [Dithiazanine iodide] — lower, 98
- CCCCCCCCCCCC[N+](C)(C)CCOc1ccccc1 [Domiphen bromide] — lower, 98.3
- O=c1[nH]c2ccccc2n1CCCN1CCC(n2c(=O)[nH]c3cc(Cl)ccc32)CC1 [Domperidone] — lower, 82.2
- COc1cc2nc(N3CCN(C(=O)C4COc5ccccc5O4)CC3)nc(N)c2cc1OC (centres unmarked) [Doxazosin mesylate] — lower, 96.4
- COc1cccc2c1C(=O)c1c(O)c3c(c(O)c1C2=O)C[C@@](O)(C(=O)CO)C[C@@H]3O[C@H]1C[C@H](N)[C@H](O)[C@H](C)O1 [Doxorubicin] — higher, 99.5
- O=c1oc2c(O)c(O)cc3c(=O)oc4c(O)c(O)cc1c4c23 [Ellagic acid] — lower, 87.1
- CC[C@H]1CN2CCc3cc(OC)c(OC)cc3[C@@H]2C[C@@H]1C[C@H]1NCCc2cc(OC)c(OC)cc21 [Emetine] — lower, 98.3
- COc1cccc2c1C(=O)c1c(O)c3c(c(O)c1C2=O)C[C@@](O)(C(=O)CO)C[C@@H]3O[C@H]1C[C@H](N)[C@@H](O)[C@H](C)O1 [Epirubicin] — lower, 98.4
- CNC(=O)Oc1ccc2c(c1)[C@]1(C)CCN(C)[C@@H]1N2C [Eserine] — lower, 79.2

In the case of `C[n+]1c2cc(N)ccc2cc2ccc(N)cc21.Nc1ccc2cc3ccc(N)cc3nc2c1.[Cl-]` [Acriflavine], the 3D7 is given as 98.2 and 99.
